# Test results reported in PMC4682037, “Signal transduction in light–oxygen–voltage receptors lacking the adduct-forming cysteine residue” (Nature Communications, 2015).
# B1: VVD-III (VVD Δ36, C108A:M135I:M165I) (domain or fragment, Neurospora, UniProt Q9C3Y6 37-186, looked up)
# chain: HTLYAPGGYDIMGYLIQIMNRPNPQVELGPVDTSCALILCDLKQKDTPIVYASEAFLYMTGYSNAEVLGRNARFLQSPDGMVKPKSTRKYVDSNTINTIRKAIDRNAEVQVEVVNFKKNGQRFVNFLTIIPVRDETGEYRYSMGFQCETE
# notes: Vivid (VVD), LOV photoreceptor of Neurospora; lacks the first 36 N-terminal residues; C108A, M135I, M165I; Dark-adapted: oxidized quinone; light-adapted: neutral semiquinone (NSQ); also called Vivid; source: E. coli BL21(DE3), purified (Ni:NTA, SEC)
# Assays:
# BAT-LOV* [1] = target: T1, BAT-LOV* (Halorubrum hochstenium, UniProt M0FIW0); assay: reconstitution with excess flavin, absorption spectroscopy, SEC; type: binding; details: incubated at least 12 h in 0.5 M NaCl, unbound flavin removed by 10 kDa filter
# T1 construct: gene C467_03291; isolated LOV* domain, residues 141-275, synthetic gene, N-terminal His6 tag (pET28a), E. coli BL21(DE3), endogenous flavin removed by Q XL, monomer; full-length protein also has receiver, GAF and HTH modules
# T1 sequence (M0FIW0 entry or part of it): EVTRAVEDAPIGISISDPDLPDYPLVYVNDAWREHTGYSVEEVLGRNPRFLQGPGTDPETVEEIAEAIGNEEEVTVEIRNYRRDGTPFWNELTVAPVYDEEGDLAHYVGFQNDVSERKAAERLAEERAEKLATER
# [2] = target: T2, VVD-III (VVD Δ36, C108A:M135I:M165I) (Neurospora crassa, UniProt Q9C3Y6, C108A/M135I/M165I/Q182L); assay: photoreduction, SEC; type: binding; details: flavin bound on purification; 448-nm laser 30 mW, 50 mM Hepes pH 8, 150 mM NaCl
# T2 construct: lacks the first 36 residues, C108A/M135I/M165I, pET28a, Ni:NTA purified from E. coli BL21(DE3)
# T2 sequence (Q9C3Y6 entry or part of it C108A/M135I/M165I/Q182L): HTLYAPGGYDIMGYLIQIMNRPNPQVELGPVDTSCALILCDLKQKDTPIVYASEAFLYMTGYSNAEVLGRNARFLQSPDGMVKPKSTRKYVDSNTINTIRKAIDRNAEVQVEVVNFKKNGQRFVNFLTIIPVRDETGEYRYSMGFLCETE
# [3] = target: T3, VVD-III (VVD Δ36, C108A:M135I:M165I) (Neurospora crassa, UniProt Q9C3Y6, Y40E/C108A/M135I/M165I); assay: photoreduction, SEC; type: binding; details: flavin bound on purification; 448-nm laser 30 mW, 50 mM Hepes pH 8, 150 mM NaCl
# T3 construct: lacks the first 36 residues, C108A/M135I/M165I, pET28a, Ni:NTA purified from E. coli BL21(DE3)
# T3 sequence (Q9C3Y6 entry or part of it Y40E/C108A/M135I/M165I): as the sequence (Q9C3Y6 entry or part of it C108A/M135I/M165I/Q182L) above, with Y4E, L146Q counted along it
# BAT-LOV* [4] = target: T4, BAT-LOV* (Halorubrum hochstenium, UniProt M0FIW0, P188C); assay: photoreduction by absorption spectroscopy; type: binding; details: 448-nm laser; flavin presumably FAD as for the wild type
# T4 construct: gene C467_03291; isolated LOV* domain, residues 141-275, synthetic gene, N-terminal His6 tag (pET28a), E. coli BL21(DE3), endogenous flavin removed by Q XL, monomer; full-length protein also has receiver, GAF and HTH modules
# T4 sequence (M0FIW0 entry or part of it P188C): as the sequence (M0FIW0 entry or part of it) above, with P48C counted along it
# BAT-LOV* [5] = target: T5, BAT-LOV* (Halorubrum hochstenium, UniProt M0FIW0, Y163F/W172F/Y247F); assay: FAD reconstitution, photoreduction by absorption spectroscopy, SEC; type: binding; details: BAT-III; 448-nm laser
# T5 construct: gene C467_03291; isolated LOV* domain, residues 141-275, synthetic gene, N-terminal His6 tag (pET28a), E. coli BL21(DE3), endogenous flavin removed by Q XL, monomer; full-length protein also has receiver, GAF and HTH modules
# T5 sequence (M0FIW0 entry or part of it Y163F/W172F/Y247F): as the sequence (M0FIW0 entry or part of it) above, with Y23F, W32F, Y107F counted along it
# BAT-LOV* [6] = target: T1, BAT-LOV*; assay: reconstitution with excess flavin, absorption spectroscopy; type: binding; details: incubated at least 12 h in 0.5 M NaCl, unbound flavin removed by 10 kDa filter
# [7] = target: the molecule itself; assay: SEC; VVD-III as purified from E. coli passed through a SEC column; flavin redox states separate; blue-coloured, NSQ-containing protein
molecule,measurement,setting,value
Cc1cc2nc3c(=O)[nH]c(=O)nc-3n(C[C@H](O)[C@H](O)[C@H](O)COP(=O)(O)OP(=O)(O)OC[C@H]3O[C@@H](n4cnc5c(N)ncnc54)[C@H](O)[C@@H]3O)c2cc1C [FAD],"reconstitution with excess flavin, absorption spectroscopy, SEC",BAT-LOV* [1]; flavin-free protein elutes in extended conformation,"could be reconstituted with either FAD, FMN or riboflavin after incubation with excess cofactor"
same,"photoreduction, SEC",[2],Substituting the conserved Gln182 that interacts with flavin N5 to Leu
same,"photoreduction, SEC",[3],both the light-adapted NSQ and dark-adapted oxidized quinone states elute from SEC as monomers
same,photoreduction by absorption spectroscopy,BAT-LOV* [4],BAT P188C photoreduces to the HQ with little NSQ intermediate
same,"FAD reconstitution, photoreduction by absorption spectroscopy, SEC",BAT-LOV* [5],"recombinantly expressed, FAD-reconstituted (a) BAT-LOV* and (b) BAT-III (Y163F:W172F:Y247F)"
Cc1cc2nc3c(=O)[nH]c(=O)nc-3n(C[C@H](O)[C@H](O)[C@H](O)COP(=O)(O)O)c2cc1C [FMN],"reconstitution with excess flavin, absorption spectroscopy, SEC",BAT-LOV* [1],"could be reconstituted with either FAD, FMN or riboflavin after incubation with excess cofactor"
Cc1cc2nc3c(=O)[nH]c(=O)nc-3n(C[C@H](O)[C@H](O)[C@H](O)CO)c2cc1C [riboflavin],"reconstitution with excess flavin, absorption spectroscopy",BAT-LOV* [6],"could be reconstituted with either FAD, FMN or riboflavin after incubation with excess cofactor"
B1,stoichiometry N,[7],2
